Test: Observation of the crystals using a scanning electron microscope; measurement of the crystal thickness
Type: physicochemical
Details: scanning electron microscope image
Protocol: The ascorbic acid crystals contained in the ascorbic acid dispersion material of the present invention obtained in Examples 1 to 3 were observed using a scanning electron microscope. 3. 5 mL of the ascorbic acid dispersion material of the present invention obtained in Examples 1 to 3 as an analyte and 0.5 g of commercially available ascorbic acid crystal powder were both infused into 20 mL of the dispersion medium prepared in 2, lightly shaken, and mixed. 6. The operations of 4 and 5 were further carried out to remove the solvent component of the ascorbic acid dispersion material of the present invention, following which the operation of 4 was further carried out to precipitate particles of the ascorbic acid, and remove the supernatant, and the particles were dried at a low temperature to obtain particulate powder. […]

Q: Which Crystal shape does the source give for `O=C1O[C@H]([C@@H](O)CO)C(O)=C1O` [ascorbic acid crystal powder, ascorbic acid] here?
A: indeterminate crystal shape

Reference: US11234920B2, “Manufacturing method of an ascorbic acid dispersion material” (priority 2015, dated 2022)
